The source made the active and inactive calls. The rule behind the calls is not given here.
How the values were obtained:
[1] = AUC (0 to infinity) in Beagle dog at 1 mg/kg, iv measured at 0.033 to 24 hrs by LC-MS/MS analysis; assay type: ADME, organism-based, Canis lupus familiaris; set-up: time upper 24 hrs, dose 1 mg/kg, time lower 0.033 hrs, route iv; conditions: in vivo
[2] = Passive apparent permeability in MDCKII-LE cells; assay type: ADME, cell-based, Canis lupus familiaris; conditions: dog, MDCK; read-out: permeability (converted)
[3] = target: T1, Melanocyte-stimulating hormone receptor (Homo sapiens, UniProt Q01726); test: Displacement of [125I]-NDP-alpha-MSH from human MC1R expressed in CHO cells measured for 2 hrs by microbeta counter analysis; assay type: cell-based
Target sequence in this assay (Q01726 whole entry): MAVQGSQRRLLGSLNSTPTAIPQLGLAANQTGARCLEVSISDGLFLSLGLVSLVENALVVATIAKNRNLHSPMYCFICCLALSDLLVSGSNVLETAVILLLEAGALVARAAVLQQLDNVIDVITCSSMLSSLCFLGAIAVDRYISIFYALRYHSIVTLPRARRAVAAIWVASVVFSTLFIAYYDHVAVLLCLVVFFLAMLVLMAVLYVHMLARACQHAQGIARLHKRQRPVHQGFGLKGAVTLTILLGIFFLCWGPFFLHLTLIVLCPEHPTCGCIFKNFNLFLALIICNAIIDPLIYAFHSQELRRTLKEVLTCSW

[4] = Oral bioavailability in Beagle dog at 1 mg/kg measured at 0.25 to 24 hrs by LC-MS/MS analysis; assay type: ADME, organism-based, Canis lupus familiaris; conditions: in vivo, time 0.25-24 hrs
[5] = AUC (0 to infinity) in Beagle dog at 1 mg/kg, po measured at 0.25 to 24 hrs by LC-MS/MS analysis; assay type: ADME, organism-based, Canis lupus familiaris; set-up: time upper 24 hrs, time lower 0.25 hrs, dose 1 mg/kg, route po; conditions: in vivo
[6] = Half life in Wistar Han rat at 1 mg/kg, iv measured at 0.033 to 24 hrs by LC-MS/MS analysis; assay type: ADME, organism-based; conditions: in vivo, time 0.033-24 hrs
[7] = AUClast in Beagle dog at 1 mg/kg, po measured at 0.25 to 24 hrs by LC-MS/MS analysis; assay type: ADME, organism-based, Canis lupus familiaris; set-up: time upper 24 hrs, dose 1 mg/kg, time lower 0.25 hrs, route po; conditions: in vivo
Melanocortin receptor 4 = Melanocortin receptor 4 (Rattus norvegicus, UniProt P70596); test: Displacement of [125I]-NDP-alpha-MSH from rat MC4R expressed in CHO cells by microbeta counter analysis; assay type: cell-based
Sequence of Melanocortin receptor 4 (P70596 whole entry): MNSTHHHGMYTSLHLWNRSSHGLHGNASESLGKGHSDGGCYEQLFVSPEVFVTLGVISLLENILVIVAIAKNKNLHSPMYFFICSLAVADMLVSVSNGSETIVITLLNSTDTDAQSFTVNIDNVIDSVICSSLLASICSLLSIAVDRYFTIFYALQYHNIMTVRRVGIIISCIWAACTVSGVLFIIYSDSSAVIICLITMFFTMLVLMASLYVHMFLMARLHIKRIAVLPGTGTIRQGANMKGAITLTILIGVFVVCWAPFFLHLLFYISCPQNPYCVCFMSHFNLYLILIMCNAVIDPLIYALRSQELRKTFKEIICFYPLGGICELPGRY

Mus musculus [8] = test: Effect on body weight in anorexia/cachexia mouse model assessed as cumulative body weight gain at 10 mg/kg, po administered twice a day for 20 days and measured at 1 to 21 days; assay type: functional; conditions: time 1-21 day
Cytochrome P450 3A = Cytochrome P450 3A (Homo sapiens, UniProt P08684+P20815+Q9HB55+P24462); test: Time dependent inhibition of CYP3A (unknown origin) at 10 uM relative to control; assay type: ADME, protein assay
[9] = target: 3',5'-cyclic-AMP phosphodiesterase 7B (Homo sapiens, UniProt Q9NP56); test: Inhibition of human PDE7B
Sequence of 3',5'-cyclic-AMP phosphodiesterase 7B (Q9NP56 whole entry): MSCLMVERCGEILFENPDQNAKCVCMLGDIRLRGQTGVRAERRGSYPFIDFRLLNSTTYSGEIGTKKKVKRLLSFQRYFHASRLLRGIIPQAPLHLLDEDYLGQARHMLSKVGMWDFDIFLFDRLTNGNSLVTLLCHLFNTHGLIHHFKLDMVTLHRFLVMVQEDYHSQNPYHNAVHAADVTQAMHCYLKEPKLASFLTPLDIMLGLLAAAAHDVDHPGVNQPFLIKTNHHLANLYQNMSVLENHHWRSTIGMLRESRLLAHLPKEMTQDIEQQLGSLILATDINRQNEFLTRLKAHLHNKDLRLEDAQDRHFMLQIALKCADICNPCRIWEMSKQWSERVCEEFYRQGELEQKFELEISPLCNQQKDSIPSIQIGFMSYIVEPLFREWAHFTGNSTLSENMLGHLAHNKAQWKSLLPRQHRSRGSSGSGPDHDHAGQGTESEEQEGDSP

Mus musculus [10] = test: Effect on body weight in anorexia/cachexia mouse model assessed as increase in food intake administered twice a day for 20 days and measured at 1 to 21 days; assay type: functional, organism-based; conditions: dose 0.3-10 mg/kg, time 1-21 day
[11] = Octanol-water distribution coefficient, logD of the compound at pH 7.4 by RP-HPLC analysis; assay type: physicochemical
Phosphodiesterase 6 = test: Inhibition of human PDE6; assay type: protein assay
[12] = Cmax in Wistar Han rat at 5 mg/kg, po measured at 0.083 to 24 hrs by LC-MS/MS analysis; assay type: ADME, organism-based; set-up: dose 5 mg/kg, time upper 24 hrs, time lower 0.083 hrs, route po; conditions: in vivo
[13] = target: T1, Melanocyte-stimulating hormone receptor; test: Agonist activity at human MC1R expressed in CHO cells assessed as increase in alpha-MSH induced cAMP level measured for 60 mins; assay type: functional, cell-based
Target sequence in this assay (Q01726 whole entry, looked up): as the sequence (Q01726 whole entry) above

Melanocortin receptor 5 [14] = target: T2, Melanocortin receptor 5 (Homo sapiens, UniProt P33032); test: Agonist activity at human MC5R expressed in CHO cells assessed as increase in alpha-MSH induced cAMP level measured for 60 mins; assay type: functional, cell-based
T2 sequence (P33032 whole entry): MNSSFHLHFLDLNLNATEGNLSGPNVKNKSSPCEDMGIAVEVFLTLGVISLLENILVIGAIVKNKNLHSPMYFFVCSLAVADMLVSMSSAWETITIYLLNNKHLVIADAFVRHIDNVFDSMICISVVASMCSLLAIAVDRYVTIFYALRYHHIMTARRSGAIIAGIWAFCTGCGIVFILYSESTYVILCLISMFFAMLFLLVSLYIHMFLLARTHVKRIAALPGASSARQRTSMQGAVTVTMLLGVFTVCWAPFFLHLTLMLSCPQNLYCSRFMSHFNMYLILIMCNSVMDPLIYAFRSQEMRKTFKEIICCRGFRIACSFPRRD

[15] = target: High affinity cGMP-specific 3',5'-cyclic phosphodiesterase 9A (Homo sapiens, UniProt O76083); test: Inhibition of human PDE9A1
Sequence of High affinity cGMP-specific 3',5'-cyclic phosphodiesterase 9A (O76083 whole entry): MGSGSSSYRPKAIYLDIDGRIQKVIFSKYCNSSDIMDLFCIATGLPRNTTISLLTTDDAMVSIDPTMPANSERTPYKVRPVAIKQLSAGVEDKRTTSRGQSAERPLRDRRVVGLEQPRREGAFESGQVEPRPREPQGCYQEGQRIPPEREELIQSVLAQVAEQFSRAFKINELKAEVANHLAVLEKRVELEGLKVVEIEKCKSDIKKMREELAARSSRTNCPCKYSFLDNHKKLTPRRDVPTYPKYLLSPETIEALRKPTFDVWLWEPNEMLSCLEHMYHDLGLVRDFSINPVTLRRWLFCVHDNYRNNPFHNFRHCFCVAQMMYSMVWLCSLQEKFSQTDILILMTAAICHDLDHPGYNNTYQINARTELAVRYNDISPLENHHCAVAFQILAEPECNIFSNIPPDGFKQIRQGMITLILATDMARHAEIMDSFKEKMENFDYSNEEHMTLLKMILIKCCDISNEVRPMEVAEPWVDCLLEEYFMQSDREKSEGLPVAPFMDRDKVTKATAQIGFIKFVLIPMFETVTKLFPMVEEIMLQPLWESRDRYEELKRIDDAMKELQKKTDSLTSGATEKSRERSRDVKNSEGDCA

Mus musculus [16] = test: Effect on body weight in anorexia/cachexia mouse model assessed as reduction in cumulative food intake at 0.3 mg/kg, po administered twice a day for 20 days and measured at 1 to 21 days; assay type: functional; set-up: scale not given: the % may be the effect or the level left; conditions: time 1-21 day
[17] = Lipophilicity, logD of compound at pH 7.4 by shake flask method; assay type: physicochemical; conditions: buffer
[18] = AUC (0 to infinity) in Wistar Han rat at 5 mg/kg, po measured at 0.083 to 24 hrs by LC-MS/MS analysis; assay type: ADME, organism-based; set-up: dose 5 mg/kg, time 0.083-24 hrs, route po; conditions: in vivo
Melanocortin receptor 5 [19] = target: T2, Melanocortin receptor 5; test: Displacement of [125I]-NDP-alpha-MSH from human MC5R expressed in CHO cells measured for 2 hrs by microbeta counter analysis; assay type: cell-based
[20] = target: High affinity cAMP-specific and IBMX-insensitive 3',5'-cyclic phosphodiesterase 8B (Homo sapiens, UniProt O95263); test: Inhibition of human PDE8B
[21] = target: Adrenocorticotropic hormone receptor (Homo sapiens) (UniProt Q01718); test: Agonist activity at human MC2R expressed in CHO cells assessed as increase in alpha-MSH induced cAMP level measured for 60 mins; assay type: functional, cell-based
Sequence of Adrenocorticotropic hormone receptor (Homo sapiens) (Q01718 whole entry): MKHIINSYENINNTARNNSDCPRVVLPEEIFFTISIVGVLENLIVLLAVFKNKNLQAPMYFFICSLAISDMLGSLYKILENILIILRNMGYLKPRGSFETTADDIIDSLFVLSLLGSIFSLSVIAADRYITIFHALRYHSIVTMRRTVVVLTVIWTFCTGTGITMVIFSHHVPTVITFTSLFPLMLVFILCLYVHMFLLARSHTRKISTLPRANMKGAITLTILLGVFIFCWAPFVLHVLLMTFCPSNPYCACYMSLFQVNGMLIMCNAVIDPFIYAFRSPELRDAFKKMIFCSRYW

[22] = target: Voltage-dependent L-type calcium channel subunit alpha-1C (Homo sapiens, UniProt Q13936); test: Inhibition of Cav1.2 (unknown origin)
Mus musculus [23] = test: Effect on body weight in anorexia/cachexia mouse model assessed as reduction in cumulative food intake at 3 mg/kg, po administered twice a day for 20 days and measured at 1 to 21 days; assay type: functional; set-up: scale not given: the % may be the effect or the level left; conditions: time 20 day
[24] = Tmax in Wistar Han rat at 5 mg/kg, po measured at 0.083 to 24 hrs by LC-MS/MS analysis; assay type: ADME, organism-based; conditions: in vivo, time 0.083-24 hrs
[25] = AUClast in Wistar Han rat at 5 mg/kg, po measured at 0.083 to 24 hrs by LC-MS/MS analysis; assay type: ADME, organism-based; set-up: time upper 24 hrs, dose 5 mg/kg, time lower 0.083 hrs, route po; conditions: in vivo
[26] = target: Dual 3',5'-cyclic-AMP and -GMP phosphodiesterase 11A (Homo sapiens, UniProt Q9HCR9); test: Inhibition of human PDE11A4
[27] = Cmax in Beagle dog at 1 mg/kg, po measured at 0.25 to 24 hrs by LC-MS/MS analysis; assay type: ADME, organism-based, Canis lupus familiaris; set-up: dose 1 mg/kg, time 0.25-24 hrs, route po; conditions: in vivo
Melanocortin receptor 3 = Melanocortin receptor 3 (Homo sapiens, UniProt P41968); test: Displacement of [125I]-NDP-alpha-MSH from human MC3R expressed in CHO cells measured for 2 hrs by microbeta counter analysis; assay type: cell-based
Sequence of Melanocortin receptor 3 (P41968 whole entry): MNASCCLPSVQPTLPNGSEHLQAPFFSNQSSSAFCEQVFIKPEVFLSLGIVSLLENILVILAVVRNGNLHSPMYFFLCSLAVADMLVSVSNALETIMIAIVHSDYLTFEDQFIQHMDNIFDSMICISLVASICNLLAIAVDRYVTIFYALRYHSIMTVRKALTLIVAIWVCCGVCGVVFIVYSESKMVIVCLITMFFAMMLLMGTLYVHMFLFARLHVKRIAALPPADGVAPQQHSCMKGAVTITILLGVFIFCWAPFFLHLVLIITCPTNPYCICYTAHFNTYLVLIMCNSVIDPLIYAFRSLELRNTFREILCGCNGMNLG

[28] = Oral bioavailability in Wistar Han rat at 5 mg/kg measured at 0.083 to 24 hrs by LC-MS/MS analysis; assay type: ADME, organism-based; conditions: in vivo, time 0.083-24 hrs
[29] = AUClast in Beagle dog at 1 mg/kg, iv measured at 0.033 to 24 hrs by LC-MS/MS analysis; assay type: ADME, organism-based, Canis lupus familiaris; set-up: dose 1 mg/kg, time 0.033-24 hrs, route iv; conditions: in vivo
[30] = Metabolic stability in human hepatocyte assessed as intrinsic clearance measured per million cells HPLC/UV/MS analysis; assay type: ADME, cell-based; conditions: hepatocytes, read-out: CLH
[31] = Volume of distribution at steady state in Wistar Han rat at 1 mg/kg, iv measured at 0.033 to 24 hrs by LC-MS/MS analysis; assay type: ADME, organism-based; conditions: in vivo, time 0.033-24 hrs, read-out: Vdss
[32] = target: cGMP-specific 3',5'-cyclic phosphodiesterase (Homo sapiens, UniProt O76074); test: Inhibition of human PDE5A1
[33] = target: cGMP-inhibited 3',5'-cyclic phosphodiesterase 3A (Homo sapiens, UniProt Q14432); test: Inhibition of human PDE3A
Sequence of cGMP-inhibited 3',5'-cyclic phosphodiesterase 3A (Q14432 whole entry): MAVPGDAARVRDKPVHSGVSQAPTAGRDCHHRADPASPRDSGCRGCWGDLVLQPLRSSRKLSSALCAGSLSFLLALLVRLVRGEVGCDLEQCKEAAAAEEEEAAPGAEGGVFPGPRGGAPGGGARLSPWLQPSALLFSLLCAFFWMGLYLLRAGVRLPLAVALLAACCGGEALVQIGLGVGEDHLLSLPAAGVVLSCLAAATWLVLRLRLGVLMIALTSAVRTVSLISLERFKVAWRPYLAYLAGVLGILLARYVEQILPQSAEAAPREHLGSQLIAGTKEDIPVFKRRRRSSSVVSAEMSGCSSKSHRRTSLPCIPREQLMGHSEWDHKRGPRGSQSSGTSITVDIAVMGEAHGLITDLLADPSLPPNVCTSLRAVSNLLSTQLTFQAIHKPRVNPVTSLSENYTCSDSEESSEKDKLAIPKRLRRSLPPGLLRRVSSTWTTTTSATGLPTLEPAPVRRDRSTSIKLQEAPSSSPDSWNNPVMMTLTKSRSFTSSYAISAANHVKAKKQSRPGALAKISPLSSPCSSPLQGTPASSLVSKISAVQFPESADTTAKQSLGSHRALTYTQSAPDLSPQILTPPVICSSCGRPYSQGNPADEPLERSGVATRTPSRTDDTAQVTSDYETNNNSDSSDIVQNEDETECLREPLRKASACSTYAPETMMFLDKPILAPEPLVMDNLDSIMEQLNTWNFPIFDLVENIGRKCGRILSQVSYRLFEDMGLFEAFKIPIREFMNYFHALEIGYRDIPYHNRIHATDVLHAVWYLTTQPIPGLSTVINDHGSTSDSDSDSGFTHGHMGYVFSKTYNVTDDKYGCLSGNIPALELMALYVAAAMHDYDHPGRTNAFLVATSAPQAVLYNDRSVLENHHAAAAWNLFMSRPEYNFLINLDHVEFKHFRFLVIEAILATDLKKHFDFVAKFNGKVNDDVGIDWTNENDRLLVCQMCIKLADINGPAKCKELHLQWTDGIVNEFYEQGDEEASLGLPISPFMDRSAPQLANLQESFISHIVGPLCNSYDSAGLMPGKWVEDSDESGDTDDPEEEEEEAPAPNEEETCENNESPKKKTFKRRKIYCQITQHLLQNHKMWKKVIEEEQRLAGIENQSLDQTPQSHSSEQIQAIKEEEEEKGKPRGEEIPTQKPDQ

[34] = target: cGMP-dependent 3',5'-cyclic phosphodiesterase (Homo sapiens, UniProt O00408); test: Inhibition of human PDE2A1
[35] = target: cAMP and cAMP-inhibited cGMP 3',5'-cyclic phosphodiesterase 10A (Homo sapiens, UniProt Q9Y233); test: Inhibition of human PDE10A1
Sequence of cAMP and cAMP-inhibited cGMP 3',5'-cyclic phosphodiesterase 10A (Q9Y233 whole entry): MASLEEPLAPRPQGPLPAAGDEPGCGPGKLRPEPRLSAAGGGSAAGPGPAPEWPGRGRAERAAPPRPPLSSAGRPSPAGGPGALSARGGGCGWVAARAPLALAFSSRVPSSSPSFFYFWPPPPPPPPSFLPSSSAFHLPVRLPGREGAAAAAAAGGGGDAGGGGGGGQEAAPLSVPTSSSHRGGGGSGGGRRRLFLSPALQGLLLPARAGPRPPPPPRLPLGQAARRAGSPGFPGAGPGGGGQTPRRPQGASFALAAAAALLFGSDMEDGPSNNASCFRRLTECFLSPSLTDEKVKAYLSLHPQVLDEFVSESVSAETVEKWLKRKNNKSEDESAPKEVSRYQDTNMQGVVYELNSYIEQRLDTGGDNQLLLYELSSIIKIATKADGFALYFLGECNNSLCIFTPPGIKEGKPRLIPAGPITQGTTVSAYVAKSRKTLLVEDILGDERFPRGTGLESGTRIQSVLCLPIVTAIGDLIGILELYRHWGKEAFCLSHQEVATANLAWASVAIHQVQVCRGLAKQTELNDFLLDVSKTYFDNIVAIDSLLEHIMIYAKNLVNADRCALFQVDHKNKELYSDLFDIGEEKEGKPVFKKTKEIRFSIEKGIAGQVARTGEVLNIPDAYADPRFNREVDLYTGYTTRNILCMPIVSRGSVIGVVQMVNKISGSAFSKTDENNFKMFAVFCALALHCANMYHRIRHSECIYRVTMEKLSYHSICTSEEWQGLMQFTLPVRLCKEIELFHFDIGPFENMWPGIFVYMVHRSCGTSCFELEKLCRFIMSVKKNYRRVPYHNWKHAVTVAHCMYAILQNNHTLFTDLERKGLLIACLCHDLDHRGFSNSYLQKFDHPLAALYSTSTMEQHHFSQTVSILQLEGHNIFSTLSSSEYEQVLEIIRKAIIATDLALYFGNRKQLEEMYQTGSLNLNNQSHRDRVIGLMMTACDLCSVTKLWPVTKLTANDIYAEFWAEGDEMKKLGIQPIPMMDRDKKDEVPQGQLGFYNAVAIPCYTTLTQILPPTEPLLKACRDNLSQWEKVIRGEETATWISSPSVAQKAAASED

[36] = target: 3',5'-cyclic-AMP phosphodiesterase 4D (Homo sapiens, UniProt Q08499); test: Inhibition of human PDE4D3

Structure (SMILES): COc1cc([C@@H](C)C(=O)N2CC[C@@]3(COc4cc(-c5ncccn5)c(C)nc4N3)C2)c(F)cn1
- AUC [1]: 1660 ng·h/mL
- Papp [2]: 0.467 ×10⁻⁶ cm/s
- Ki [3]: > 1.6 µM
- F [4]: 93%
- AUC [5]: 4610 ng·h/mL
- half-life [6]: 60 min
- AUC(0-t) [7]: 4580 ng·h/mL
- Ki (Melanocortin receptor 4): 0.00052 µM
- Activity (Mus musculus [8]): 22%
- K (Cytochrome P450 3A): 0.09 min⁻¹
- IC50 [9]: > 50 µM
- Activity (Mus musculus [10]): Dose-Dependent Effect
- logD [11]: 2.6
- IC50 (Phosphodiesterase 6): > 50 µM
- Cmax [12]: 600 ng/mL
- Activity [13]: inactive
- Activity (Melanocortin receptor 5 [14]): inactive
- IC50 [15]: > 50 µM
- Activity (Mus musculus [16]): 23%
- logD [17]: 2.6
- AUC(0-inf) [18]: 1120 ng·h/mL
- Ki (Melanocortin receptor 5 [19]): 0.84 µM
- IC50 [20]: > 50 µM
- Activity [21]: inactive
- IC50 [22]: > 100 µM
- Activity (Mus musculus [23]): 40%
- Tmax [24]: 30 min
- AUC(0-t) [25]: 1110 ng·h/mL
- IC50 [26]: > 50 µM
- Cmax [27]: 1470 ng/mL
- Ki (Melanocortin receptor 3): 0.34 µM
- bioavailability [28]: 28%
- AUC(0-t) [29]: 1640 ng·h/mL
- hepatocyte CLint [30]: 12 µL/min/1e6 cells
- Vd [31]: 0.95 L/kg
- IC50 [32]: > 50 µM
- IC50 [33]: > 50 µM
- IC50 [34]: > 50 µM
- IC50 [35]: > 50 µM
- IC50 [36]: > 50 µM

— ChEMBL document CHEMBL5316345, “Discovery of the Potent and Selective MC4R Antagonist PF-07258669 for the Potential Treatment of Appetite Loss” (J Med Chem, 2023)
